Assay results as given in patent US10781203B2, “Nontoxic compounds for the treatment and prevention of herpesvirus infections” (The Penn State Research Foundation, priority 2016, dated 2020).

Columns and labels:
[1] = test system: cytoplasmic viral assembly compartment (cVAC); test: Electron microscopy of HCMV-infected cells; type: cell-based, human; settings: MOI=3; 96 hpi; treated at 2 hpi
Description: Cells were seeded on 60 mm Permanox tissue culture dishes (Nalge Nunc International). Infections were done at an MOI of 3 for 96 hours. Cells were first washed with PBS 3× followed by fixation for 1 hour at 4° C. in fixation buffer (0.5% [vol/vol] glutaraldehyde, 0.04% [wt/vol] paraformaldehyde, 0.1 M sodium cacodylate). Cells were then processed for EM by the Microscopy Imaging Facility (Pennsylvania State University College of Medicine). Briefly, the fixed samples were washed three times with 0.1 M sodium cacodylate, followed by postfixation in 1% osmium −1.5% potassium ferrocyanide overnight at 4° C. Samples were then washed 3 times in 0.1 M sodium cacodylate, dehydrated with ethanol, and embedded in Epon 812 for staining and sectioning. Images were acquired using a JEOL JEM-1400 Digital Capture transmission electron microscope.

[2] = test system: Towne, TB40, Merlin and Toledo strains of HCMV; test: Viral titers of fibroblasts infected with various strains of HCMV; type: cell-based, Human cytomegalovirus (HCMV); settings: all four strains; MOI=0.05; treated at 2 hpi; 15 dpi
Description: (§1) FIG. 7A is a graph showing viral titers at 15 dpi of fibroblasts infected with various strains of HCMV (MOI=0.05) and treated with DMSO or Retro94 at 2 hpi. Media was changed and fresh Retro94 was added at 6 dpi. Bright field images representing CPE of above infections shown at right. FIG. 7B show HCMV-infected ARPE-19 cells (TB40, MOI=3) at 21 dpi treated with DMSO or Retro94 ([…]). Infected cells detected by monitoring mCherry (red) expressed by TB40 virus. Scale bars: 1 mm. The table below images show number of foci detected, average area and standard error of the mean. P<0.00001. […]
(§2) For MCMV growth curve analysis, samples were titrated on NIH 3T3 cells and titers were calculated using the 50% tissue culture infective dose method. Both HCMV virus stocks and samples for growth curves were titrated by serial dilutions on MRC5 cells and quantified by the immunological detection of immediate-early proteins as previously described (Britt W J. Human cytomegalovirus: propagation, quantification, and storage. Curr Protoc Microbiol. 2010; Chapter 14: Unit 14E.3). The numbers of stained nuclei were acquired on a Nikon Eclipse Ti Inverted microscope and fluorescent nuclei were quantified using the NIS Elements Software. […] The number and size of foci were quantified using NIS Elements software.

MCMV = test: Viral titers of MCMV-infected fibroblasts; type: cell-based, mouse; settings: treated at 2 hpi; 6 dpi (FIG. 7C)
Description: as §1, §2

[3] = test system: HCMV-infected ARPE-19 cells (TB40); test: Spread of HCMV TB40-mCherry in ARPE-19 cells (viral foci area); type: cell-based, Human cytomegalovirus (HCMV); settings: TB40-mCherry MOI=3, 10 μM, three weeks after infection
Description: as §1, §2

HCMV = HCMV single-step growth curve / virus titer analysis (MOI=3); type: cell-based, Human cytomegalovirus (HCMV); settings: for reduction in infectious virion production: MOI=3, titers at 96 hpi
Description: Infections were done at an MOI of 0.05 for multi-step growth curves and MOI 3 for single-step growth curves. Infections were done on NHDFs unless otherwise noted. Virus was incubated with cells for 2 hours before addition of fresh media. For growth curve analyses, virus was harvested at the indicated time-points for each experiment by scraping the cells into the medium, sonicating 10 times with 1 second pulses, vortexing for 15 seconds, and centrifuging at 13,000 rpm for 10 min. Supernatants were collected, aliquoted and flash-frozen in liquid nitrogen before storage at −80° C.
For MCMV growth curve analysis, samples were titrated on NIH 3T3 cells and titers were calculated using the 50% tissue culture infective dose method. Both HCMV virus stocks and samples for growth curves were titrated by serial dilutions on MRC5 cells and quantified by the immunological detection of immediate-early proteins as previously described (Britt W J. Human cytomegalovirus: propagation, quantification, and storage. Curr Protoc Microbiol. 2010; Chapter 14: Unit 14E.3). The numbers of stained nuclei were acquired on a Nikon Eclipse Ti Inverted microscope and fluorescent nuclei were quantified using the NIS Elements Software. Images of viral foci from infection of ARPE19 cells were also acquired on Eclipse Ti Inverted microscope. The number and size of foci were quantified using NIS Elements software.
^1H NMR spectra were recorded on a 500 MHz Bruker spectrometer (Billerica, Mass.) using tetramethylsilane (TMS) as the internal reference. The following abbreviations were used to designate chemical shift multiplicities: s=singlet, d=doublet, dd=double doublet, t=triplet, dt=doublet of triplet, m=multiplet. Mass Spec analysis was performed on 4000 Q trap hybrid triple quadrupole/linear ion trap instrument (Applied Biosystems/MDS Sciex) at the proteomic facility at Penn State Hershey Cancer Institute, Hershey, Pa. Thin-layer chromatography (TLC) was on aluminum-supported, precoated silica gel plates (EM Industries, Gibbstown, N.J.). 5-(2-methyl-3-thiazol-4-yl)-2-thiophencarboxaldehyde was purchased from MAYBRIDGE-Thermo Fisher (Cornwall, UK). All other starting materials were obtained from Aldrich Chemical Co. (Milwaukee, Wis.) and used without further purification. Retro94 was added to cells at 2 hpi at a concentration of 10 μM, unless otherwise indicated.

## Cc1nc(-c2ccc(C3N(C)c4ccccc4C(=O)N3c3ccccc3)s2)cs1 (centres unmarked) [Retro94, 1-Methyl-2-(5-(2-methylthiazol-4-yl)thiophen-2-yl)-3phenyl-2,3-dihydroquinazolin-4(1H)-one]
[1]
  capsids in perinuclear region (EM): largely devoid of capsids at all stages of maturation
[2]
  viral titers lower in the presence of compound: two to three
MCMV
  decrease of MCMV titer: ~3 logs
[3]
  area of viral centers, DMSO treated versus compound treated cells: more than twice
HCMV; Human betaherpesvirus 5, added at 2 hpi, MOI 3, 96 hpi, read-out: IC50 (HCMV titers)
  IC50: ~0.13 µM
HCMV; MOI 3 pfu/cell, added two hours after infection, 10 μM
  reduction of production of infectious virions: greater than two
HCMV; added at 2 hpi
  reduction in infectious virion production: two
HCMV; added at 24 hpi
  reduction in infectious virion production: 20 fold
HCMV; added at 48 hpi
  reduction in infectious virion production: 5 fold
HCMV; added at 72 hpi
  reduction in infectious virion production: two
HCMV; ten-fold dilutions added at 2 hpi, MOI 3, 96 hpi
  dilution at which a significant inhibition in viral titers was first present: 1 µM
